According to ChEMBL document CHEMBL1145699, “Bioactive Terpenoids from Octocorallia. 3. A New Eunicellin-Based Diterpenoid from the Soft Coral Cladiella sphaeroides” (J Nat Prod, 1997):

System: Artemia salina
Assay: Toxicity against Artemia salina at 30 ppm
Format: organism-based
Settings: in vivo; call rule not given here

C=C1CC[C@H](C(C)C)[C@@H]2[C@H]1[C@@H]1CC(=C)[C@@H](O)CC[C@](C)(O)[C@H]2O1 [CLADIELLISIN] was tested, and the Activity was “Not Active”.
